From publication PMC7715017, “Conjugation of Synthetic Polyproline Moietes to Lipid II Binding Fragments of Nisin Yields Active and Stable Antimicrobials” (Frontiers in Microbiology, 2020)
In brackets after ≈: the same amount, converted by molar mass. Read-outs that look alike come from different tables or passages of the source. Non-standard residues stand in square brackets, D forms with d. Residues, ends and D or L forms follow the SMILES beside them. *: point of attachment. Oic = O=C(O)[C@@H]1C[C@@H]2CCCC[C@@H]2N1; Pent4ynoyl = C#CCCC(=O)*

Columns and labels:
[1] = tested on: L. lactis NZ9000 (pEmpty); details: broth microdilution (Wiegand et al. 2008); samples in 0.05% acetic acid; strain with empty plasmid
Experimental: (§1) All samples were resuspended in 0.05% aqueous acetic acid solution and the peptide amount was quantified by HPLC according to Schmitt et al. ([Schmitt et al., 2019]). The indicator strains MW2-MRSA, Enterococcus faecium, Listeria monocytogenes, and Lactococcus lactis were first streaked on GM17 plate and cultured overnight. The peptide samples were diluted with 0.05% acetic acid to a concentration of 40–320 μM (depending on the estimated activity of the peptide and the strain tested). The MIC value test was performed according to [Wiegand et al. (2008)].
(§2) M. flavus was used as the indicator strain for the agar well diffusion assay, and 0.15 nmol of each sample was added to each well (Figure 3). […] Antimicrobial activity of all compounds was tested by growth inhibition assays against two clinically relevant Gram-positive pathogens, i.e., methicillin resistant S. aureus and vancomycin resistant E. faecium, as well as L. monocytogenes, and L. lactis. […] For this experiment, an activity test was performed against the NSR producing strain L. lactis NZ9000 (pNSR).

[2] = tested on: MW2-MRSA (Staphylococcus aureus MW2, methicillin resistant)
Experimental: as §1, §2

[3] = tested on: Enterococcus faecium LMG 16003 (vancomycin resistant, VRE)
Experimental: as §1, §2

[4] = tested on: Listeria monocytogenes LMG 10470
Experimental: as §1, §2

[5] = MW2- ( MW2, methicillin resistant)
[6] = broth microdilution (Wiegand et al. 2008), samples in 0.05% acetic acid, quantified by HPLC

| SMILES | MIC value, L. lactis NZ9000 (pEmpty) [1] [μM] | MIC value, MW2-MRSA [2, 5] [µM] | MIC value, E. faecium ([3]; LMG 16003) [µM] | MIC value, L. monocytogenes ([4]; LMG 10470) [µM] | MIC value, MW2-MRSA [2, 6] [µM] | MIC value, E. faecium [3, 6] [µM] | MIC value, L. monocytogenes [4, 6] [µM] |
| --- | --- | --- | --- | --- | --- | --- | --- |
| C=C1NC(=O)[C@H]([C@@H](C)CC)NC(=O)[C@H](NC(=O)/C(=C/C)NC(=O)[C@@H](N)[C@@H](C)CC)CSC[C@@H](C(=O)N[C@H]2C(=O)N3CCC[C@H]3C(=O)NCC(=O)N[C@H](C(=O)N[C@@H](CCCCN)C(=O)NCCCn3cc(CCC(=O)N4[C@H](C(=O)N5[C@H](C(=O)N6[C@H](C(=O)N[C@@H](CCCCN)C(=O)N[C@@H](CCCCN)C(=O)N[C@@H](CCCCN)C(=O)O)C[C@@H]7CCCC[C@@H]76)C[C@@H]6CCCC[C@@H]65)C[C@@H]5CCCC[C@@H]54)nn3)CS[C@H]2C)NC(=O)[C@H](CC(C)C)NC1=O [Nisin AB + O3K3] | >40 | – | – | – | – | – | – |
| C=C1NC(=O)[C@H]([C@@H](C)CC)NC(=O)[C@H](NC(=O)/C(=C/C)NC(=O)[C@@H](N)[C@@H](C)CC)CSC[C@@H](C(=O)N[C@H]2C(=O)N3CCC[C@H]3C(=O)NCC(=O)N[C@H](C(=O)N[C@@H](CCCCN)C(=O)NCCCn3cc(CCC(=O)N4[C@H](C(=O)N5[C@H](C(=O)N6[C@H](C(=O)O)C[C@@H]7CCCC[C@@H]76)C[C@@H]6CCCC[C@@H]65)C[C@@H]5CCCC[C@@H]54)nn3)CS[C@H]2C)NC(=O)[C@H](CC(C)C)NC1=O [Nisin AB + O3] | >40 | – | – | – | – | – | – |
| C=C1NC(=O)[C@H]([C@@H](C)CC)NC(=O)[C@H](NC(=O)/C(=C/C)NC(=O)[C@@H](N)[C@@H](C)CC)CSC[C@@H](C(=O)N[C@H]2C(=O)N3CCC[C@H]3C(=O)NCC(=O)N[C@H](C(=O)N[C@@H](CCCCN)C(=O)NCCCn3cc(CCC(=O)N4[C@H](C(=O)N5[C@H](C(=O)N6[C@H](C(=O)N7[C@H](C(=O)N8[C@H](C(=O)N9[C@H](C(=O)O)C[C@@H]%10CCCC[C@@H]%109)C[C@@H]9CCCC[C@@H]98)C[C@@H]8CCCC[C@@H]87)C[C@@H]7CCCC[C@@H]76)C[C@@H]6CCCC[C@@H]65)C[C@@H]5CCCC[C@@H]54)nn3)CS[C@H]2C)NC(=O)[C@H](CC(C)C)NC1=O [Nisin AB + O6] | 20 | – | – | – | – | – | – |
| C=C1NC(=O)[C@H]([C@@H](C)CC)NC(=O)[C@H](NC(=O)/C(=C/C)NC(=O)[C@@H](N)[C@@H](C)CC)CSC[C@@H](C(=O)N[C@H]2C(=O)N3CCC[C@H]3C(=O)NCC(=O)N[C@H](C(=O)N[C@@H](CCCCN)C(=O)NCCCn3cc(CCC(=O)N4[C@H](C(=O)N5[C@H](C(=O)N6[C@H](C(=O)N7[C@H](C(=O)N8[C@H](C(=O)N9[C@H](C(=O)N%10[C@H](C(=O)N%11[C@H](C(=O)N%12[C@H](C(=O)O)C[C@@H]%13CCCC[C@@H]%13%12)C[C@@H]%12CCCC[C@@H]%12%11)C[C@@H]%11CCCC[C@@H]%11%10)C[C@@H]%10CCCC[C@@H]%109)C[C@@H]9CCCC[C@@H]98)C[C@@H]8CCCC[C@@H]87)C[C@@H]7CCCC[C@@H]76)C[C@@H]6CCCC[C@@H]65)C[C@@H]5CCCC[C@@H]54)nn3)CS[C@H]2C)NC(=O)[C@H](CC(C)C)NC1=O [Nisin AB + O9] | 5.0 | – | – | – | – | – | – |
| C=C1NC(=O)[C@H]([C@@H](C)CC)NC(=O)[C@H](NC(=O)/C(=C/C)NC(=O)[C@@H](N)[C@@H](C)CC)CSC[C@@H](C(=O)N[C@H]2C(=O)N3CCC[C@H]3C(=O)NCC(=O)N[C@H](C(=O)N[C@@H](CCCCN)C(=O)N[C@H]3C(=O)NCC(=O)N[C@@H](C)C(=O)N[C@@H](CC(C)C)C(=O)N[C@@H](CCSC)C(=O)NCC(=O)N[C@H](C(=O)N[C@@H](CC(N)=O)C(=O)NCCCn4cc(CCC(=O)N5[C@H](C(=O)N6[C@H](C(=O)N7[C@H](C(=O)O)C[C@@H]8CCCC[C@@H]87)C[C@@H]7CCCC[C@@H]76)C[C@@H]6CCCC[C@@H]65)nn4)CS[C@H]3C)CS[C@H]2C)NC(=O)[C@H](CC(C)C)NC1=O [Nisin ABC + O3] | 5.0 | >80 | 20 | >80 | – | – | – |
| C=C1NC(=O)[C@H]([C@@H](C)CC)NC(=O)[C@H](NC(=O)/C(=C/C)NC(=O)[C@@H](N)[C@@H](C)CC)CSC[C@@H](C(=O)N[C@H]2C(=O)N3CCC[C@H]3C(=O)NCC(=O)N[C@H](C(=O)N[C@@H](CCCCN)C(=O)N[C@H]3C(=O)NCC(=O)N[C@@H](C)C(=O)N[C@@H](CC(C)C)C(=O)N[C@@H](CCSC)C(=O)NCC(=O)N[C@H](C(=O)N[C@@H](CC(N)=O)C(=O)NCCCn4cc(CCC(=O)N5[C@H](C(=O)N6[C@H](C(=O)N7[C@H](C(=O)N8[C@H](C(=O)N9[C@H](C(=O)N%10[C@H](C(=O)N%11[C@H](C(=O)N%12[C@H](C(=O)N%13[C@H](C(=O)O)C[C@@H]%14CCCC[C@@H]%14%13)C[C@@H]%13CCCC[C@@H]%13%12)C[C@@H]%12CCCC[C@@H]%12%11)C[C@@H]%11CCCC[C@@H]%11%10)C[C@@H]%10CCCC[C@@H]%109)C[C@@H]9CCCC[C@@H]98)C[C@@H]8CCCC[C@@H]87)C[C@@H]7CCCC[C@@H]76)C[C@@H]6CCCC[C@@H]65)nn4)CS[C@H]3C)CS[C@H]2C)NC(=O)[C@H](CC(C)C)NC1=O [Nisin ABC + O9] | 5.0 | >80 | 10 | 40 | – | – | – |
| C=C1NC(=O)[C@H]([C@@H](C)CC)NC(=O)[C@H](NC(=O)/C(=C/C)NC(=O)[C@@H](N)[C@@H](C)CC)CSC[C@@H](C(=O)N[C@H]2C(=O)N3CCC[C@H]3C(=O)NCC(=O)N[C@H](C(=O)N[C@@H](CCCCN)C(=O)N[C@H]3C(=O)NCC(=O)N[C@@H](C)C(=O)N[C@@H](CC(C)C)C(=O)N[C@@H](CCSC)C(=O)NCC(=O)N[C@H](C(=O)N[C@@H](CC(N)=O)C(=O)O)CS[C@H]3C)CS[C@H]2C)NC(=O)[C@H](CC(C)C)NC1=O [Nisin ABC, reference compound] | 5.0 | 40 (≈ 75.2 µg/mL) | 40 (≈ 75.2 µg/mL) | 40 (≈ 75.2 µg/mL) | – | – | – |
| C#CCCC(=O)N1[C@H](C(=O)N2[C@H](C(=O)N3[C@H](C(=O)N[C@@H](CCCCN)C(=O)N[C@@H](CCCCN)C(=O)N[C@@H](CCCCN)C(=O)O)C[C@@H]4CCCC[C@@H]43)C[C@@H]3CCCC[C@@H]32)C[C@@H]2CCCC[C@@H]21 [O3K3] (Pent4ynoyl-[Oic][Oic][Oic]KKK-OH) | >160 | >160 | >160 | >160 | – | – | – |
| C#CCCC(=O)N1[C@H](C(=O)N2[C@H](C(=O)N3[C@H](C(=O)O)C[C@@H]4CCCC[C@@H]43)C[C@@H]3CCCC[C@@H]32)C[C@@H]2CCCC[C@@H]21 [O3] | – | >320 | >320 | >320 | – | – | – |
| C#CCCC(=O)N1[C@H](C(=O)N2[C@H](C(=O)N3[C@H](C(=O)N4[C@H](C(=O)N5[C@H](C(=O)N6[C@H](C(=O)N[C@@H](CCCCN)C(=O)N[C@@H](CCCCN)C(=O)N[C@@H](CCCCN)C(=O)O)C[C@@H]7CCCC[C@@H]76)C[C@@H]6CCCC[C@@H]65)C[C@@H]5CCCC[C@@H]54)C[C@@H]4CCCC[C@@H]43)C[C@@H]3CCCC[C@@H]32)C[C@@H]2CCCC[C@@H]21 [O6K3] (Pent4ynoyl-[Oic][Oic][Oic][Oic][Oic][Oic]KKK-OH) | >80 | – | – | – | >80 | >80 | >80 |
| C#CCCC(=O)N1[C@H](C(=O)N2[C@H](C(=O)N3[C@H](C(=O)N4[C@H](C(=O)N5[C@H](C(=O)N6[C@H](C(=O)O)C[C@@H]7CCCC[C@@H]76)C[C@@H]6CCCC[C@@H]65)C[C@@H]5CCCC[C@@H]54)C[C@@H]4CCCC[C@@H]43)C[C@@H]3CCCC[C@@H]32)C[C@@H]2CCCC[C@@H]21 [O6] (Pent4ynoyl-[Oic][Oic][Oic][Oic][Oic][Oic]-OH) | – | >320 | >320 | >320 | – | – | – |
| C#CCCC(=O)N1[C@H](C(=O)N2[C@H](C(=O)N3[C@H](C(=O)N4[C@H](C(=O)N5[C@H](C(=O)N6[C@H](C(=O)N7[C@H](C(=O)N8[C@H](C(=O)N9[C@H](C(=O)O)C[C@@H]%10CCCC[C@@H]%109)C[C@@H]9CCCC[C@@H]98)C[C@@H]8CCCC[C@@H]87)C[C@@H]7CCCC[C@@H]76)C[C@@H]6CCCC[C@@H]65)C[C@@H]5CCCC[C@@H]54)C[C@@H]4CCCC[C@@H]43)C[C@@H]3CCCC[C@@H]32)C[C@@H]2CCCC[C@@H]21 [O9, Pentynyl-(Oic)9-OH] (Pent4ynoyl-[Oic][Oic][Oic][Oic][Oic][Oic][Oic][Oic][Oic]-OH) | – | >320 | >320 | >320 | – | – | – |
